The values below come from patent US10189807B2, “Tetrahydrothiophene-based GABA aminotransferase inactivators” (Northwestern University, priority 2015, dated 2019).

Structures can show the parent of a compound that is named as a salt. Where two headings read alike, the source gives them in different places.

What is called Ki is the equilibrium dissociation constant of an inhibitor or competing ligand from its target. As usually defined, the fraction unbound is the share of the substance not bound to proteins or other matrix. Higher therefore signals much free substance.

For data set [1], the target named is T1, GABA-AT (Sus scrofa (Pig), UniProt P80147). Description: Inhibition of GABA-AT, coupled assay with SSDH. It counts as biochemical. As to the method: (§1) GABA-AT was isolated and purified from pig brain by a published procedure.
T1 sequence (P80147 29-500 limits assumed): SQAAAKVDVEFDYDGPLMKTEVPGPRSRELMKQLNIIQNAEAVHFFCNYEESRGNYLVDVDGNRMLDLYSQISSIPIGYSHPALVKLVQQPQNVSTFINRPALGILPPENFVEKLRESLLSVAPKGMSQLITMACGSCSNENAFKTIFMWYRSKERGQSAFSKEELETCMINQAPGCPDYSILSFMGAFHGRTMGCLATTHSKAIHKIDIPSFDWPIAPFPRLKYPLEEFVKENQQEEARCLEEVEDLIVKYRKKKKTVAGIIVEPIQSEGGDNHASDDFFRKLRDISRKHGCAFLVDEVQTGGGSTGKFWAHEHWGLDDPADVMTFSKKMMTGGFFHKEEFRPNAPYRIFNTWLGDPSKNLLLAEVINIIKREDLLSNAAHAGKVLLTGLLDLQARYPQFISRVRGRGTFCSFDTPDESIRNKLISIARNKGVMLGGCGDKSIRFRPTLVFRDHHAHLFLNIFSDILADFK
Inhibition constants were determined by monitoring GABA-AT activity in the presence of 0-50 mM concentrations of synthesized analogues using a coupled assay with the enzyme succinic semialdehyde dehydrogenase (SSDH). The assay solution consisted of 10 mM GABA, 5 mM α ketoglutarate, 1 mM NADP^+, 5 mM β-mercaptoethanol, and excess SSDH in 50 mM potassium pyrophosphate buffer, pH 8.5. Enzyme activity was determined by observing the change in absorbance at 340 nm at 25° C. IC50 values were obtained using non-linear regression in GraphPad Prism5 software. Subsequent Ki values were determined using the Cheng-Prusoff relationship. (Yung-Chi, C.; Prusoff, W. H. Biochem. Pharmacol. 1973, 22, 3099-3108.)

In data set [2] the test system is GABA-AT. The settings on record: prior art; cited from earlier work.
Data set [3] relates to aspartate aminotransferase. The settings on record: off-target enzyme; cited from earlier work.
The target in data set [4] is CYP2D6 (Homo sapiens (Human), UniProt P10635). Description: Inhibition of microsomal cytochromes P450: CYP2D6. It counts as in vitro ADME. The settings on record: 10 μM, HLM, dextromethorphan substrate, 10 min at 37° C. As to the method: (§2) The experiments were performed by Eurofins Panlabs (Redmond, Wash. 98052, USA). CYP1A inhibition (HLM, phenacetin substrate), CYP2B6 inhibition (HLM, bupropion substrate), CYP2C8 inhibition (HLM, paclitaxel substrate), CYP2C9 inhibition (HLM, diclofenac substrate), CYP2C19 inhibition (HLM, omeprazole substrate), CYP2D6 inhibition (HLM, dextromethorphan substrate), and CYP3A inhibition (HLM, midazolam and testosterone substrates) were tested. The test concentration was 10 μM. The incubation time was 10 min at 37° C. The detection method was by HPLC-MS/MS. The experiments were duplicated, and the % inhibition of the control values was averaged (FIG. 10).
Chain of CYP2D6 (P10635 whole entry): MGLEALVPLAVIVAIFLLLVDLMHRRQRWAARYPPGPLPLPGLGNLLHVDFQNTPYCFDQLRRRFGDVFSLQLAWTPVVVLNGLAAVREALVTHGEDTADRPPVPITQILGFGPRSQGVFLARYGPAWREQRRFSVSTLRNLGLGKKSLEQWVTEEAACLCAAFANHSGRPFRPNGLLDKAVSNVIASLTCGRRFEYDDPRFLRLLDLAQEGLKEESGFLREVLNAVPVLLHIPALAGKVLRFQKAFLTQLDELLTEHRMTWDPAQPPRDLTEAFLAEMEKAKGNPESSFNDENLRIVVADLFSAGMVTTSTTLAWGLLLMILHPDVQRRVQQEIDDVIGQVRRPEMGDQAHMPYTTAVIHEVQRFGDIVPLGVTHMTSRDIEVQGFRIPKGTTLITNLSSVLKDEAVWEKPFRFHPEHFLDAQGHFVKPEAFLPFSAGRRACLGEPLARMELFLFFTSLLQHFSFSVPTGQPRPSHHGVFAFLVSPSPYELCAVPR

Data set [5] concerns the target hERG channel (Homo sapiens (Human), UniProt Q12809). Briefly: Inhibition of the hERG channel, automated whole-cell patch clamp. The format is cell-based. The settings on record: hERG CHO-K1 cell line; 0.1, 1 and 10 μM; 5 min at room temperature. As for the experimental part: The experiments were performed by Eurofins Panlabs (Redmond, Wash. 98052, USA). hERG CHO-K1 cell line was used. The test concentrations were 0.1 μM, 1 μM, and 10 μM. The incubation time was 5 min at room temperature, cumulatively. The detection method used an automated whole-cell patch clamp. The experiments were duplicated, and the % inhibition of the tail current was averaged (FIG. 9).

In data set [6] the target is T1, GABA-AT. Description: Time-dependent inhibition (inactivation) of GABA-AT, Kitz and Wilson replot. The format is biochemical. The settings on record: preliminary in vitro results. As for the experimental part:
as §1
GABA-AT (17.5 μL) was incubated in the presence of varying concentrations of each compound (70 μL final volume) at 25° C. in 50 mM potassium pyrophosphate buffer solution, pH 6.5, containing 5 mM α-ketoglutarate and 1 mM β-mercaptoethanol. […] The relative enzyme activity was determined by normalizing the rate of increasing absorbance at 340 nm to a control. A Kitz and Wilson replot was used to determine the kinetic constants KI and kinact.

For data set [7], the target named is CYP1A (Homo sapiens (Human), UniProt P05177). Briefly: Inhibition of microsomal cytochromes P450: CYP1A. The format is in vitro ADME. The settings on record: 10 μM, HLM, phenacetin substrate, 10 min at 37° C. As for the experimental part:
as §2

Data set [8] has as its target CYP2C9 (Homo sapiens (Human), UniProt P11712). Description: Inhibition of microsomal cytochromes P450: CYP2C9. The format is in vitro ADME. The settings on record: 10 μM, HLM, diclofenac substrate, 10 min at 37° C. As to the method:
as §2

Data set [9] has as its target CYP2C19 (Homo sapiens (Human), UniProt P33261). Briefly: Inhibition of microsomal cytochromes P450: CYP2C19. It counts as in vitro ADME. The settings on record: 10 μM, HLM, omeprazole substrate, 10 min at 37° C. As to the method:
as §2

Data set [10] concerns the target CYP2C8 (Homo sapiens (Human), UniProt P10632). Briefly: Inhibition of microsomal cytochromes P450: CYP2C8. The format is in vitro ADME. The settings on record: 10 μM, HLM, paclitaxel substrate, 10 min at 37° C. As for the experimental part: as §2
A short description of data set [11]: Plasma protein binding. The format is in vitro ADME.
The target of data set [12] is CYP2B6 (Homo sapiens (Human), UniProt P20813). Briefly: Inhibition of microsomal cytochromes P450: CYP2B6. The settings on record: 10 μM, HLM, bupropion substrate, 10 min at 37° C. The format is in vitro ADME. As for the experimental part: as §2
Chain of CYP2B6 (P20813 whole entry): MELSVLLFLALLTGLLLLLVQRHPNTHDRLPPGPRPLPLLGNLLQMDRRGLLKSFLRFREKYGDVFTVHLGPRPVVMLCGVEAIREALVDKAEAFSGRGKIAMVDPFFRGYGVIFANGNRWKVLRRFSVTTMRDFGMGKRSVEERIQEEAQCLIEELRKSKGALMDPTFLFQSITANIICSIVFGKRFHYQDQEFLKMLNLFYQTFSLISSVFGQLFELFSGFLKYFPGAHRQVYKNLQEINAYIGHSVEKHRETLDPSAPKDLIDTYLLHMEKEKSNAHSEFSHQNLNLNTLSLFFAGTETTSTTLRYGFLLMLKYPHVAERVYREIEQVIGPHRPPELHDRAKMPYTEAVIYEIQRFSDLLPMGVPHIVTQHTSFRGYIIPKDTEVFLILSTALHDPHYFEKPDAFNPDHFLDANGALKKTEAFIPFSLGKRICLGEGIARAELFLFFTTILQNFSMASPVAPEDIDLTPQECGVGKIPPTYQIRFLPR
Data set [13] in a line: Metabolic stability in human liver microsomes. It counts as in vitro ADME. The settings on record: 0.1 μM, over 60 minutes at 37° C., LC-MS/MS. As for the experimental part: The experiments were performed by Eurofins Panlabs (Redmond, Wash. 98052, USA). The test concentration of 17 was 0.1 μM. […] The detection method was by LC-MS/MS. Imipramine, propranolol, terfenadine, and verapamil were run in similar condition as controls.
On the technique in general: Liver microsomes are a subcellular fraction often used to study metabolism.

For data set [14], the system named is CYP3A. Description: Inhibition of microsomal cytochromes P450: CYP3A. It counts as in vitro ADME, human. The settings on record: 10 μM, HLM, midazolam and testosterone substrates, 10 min at 37° C. As for the experimental part:
as §2

Data set [15] deals with infantile spasms. The settings on record: multiple-hit rat model of infantile spasms; cited from earlier work.
[16] abbreviates: competitive inhibition, read-out: Ki (competitive inhibitor of GABA-AT).

Chain of CYP1A (P05177 whole entry): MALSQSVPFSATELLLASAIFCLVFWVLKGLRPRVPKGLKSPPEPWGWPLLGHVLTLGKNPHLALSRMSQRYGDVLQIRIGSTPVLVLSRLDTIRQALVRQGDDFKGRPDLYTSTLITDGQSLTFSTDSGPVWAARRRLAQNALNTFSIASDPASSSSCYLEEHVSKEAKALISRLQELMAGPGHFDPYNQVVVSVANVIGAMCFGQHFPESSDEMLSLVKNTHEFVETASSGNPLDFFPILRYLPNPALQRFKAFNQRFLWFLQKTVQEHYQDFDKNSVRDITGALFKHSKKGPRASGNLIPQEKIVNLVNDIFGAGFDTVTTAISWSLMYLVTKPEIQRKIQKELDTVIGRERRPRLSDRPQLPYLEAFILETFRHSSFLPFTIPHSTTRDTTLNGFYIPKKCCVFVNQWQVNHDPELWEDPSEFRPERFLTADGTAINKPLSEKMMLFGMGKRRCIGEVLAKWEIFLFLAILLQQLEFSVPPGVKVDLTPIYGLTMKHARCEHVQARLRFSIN
Chain of CYP2C8 (P10632 whole entry): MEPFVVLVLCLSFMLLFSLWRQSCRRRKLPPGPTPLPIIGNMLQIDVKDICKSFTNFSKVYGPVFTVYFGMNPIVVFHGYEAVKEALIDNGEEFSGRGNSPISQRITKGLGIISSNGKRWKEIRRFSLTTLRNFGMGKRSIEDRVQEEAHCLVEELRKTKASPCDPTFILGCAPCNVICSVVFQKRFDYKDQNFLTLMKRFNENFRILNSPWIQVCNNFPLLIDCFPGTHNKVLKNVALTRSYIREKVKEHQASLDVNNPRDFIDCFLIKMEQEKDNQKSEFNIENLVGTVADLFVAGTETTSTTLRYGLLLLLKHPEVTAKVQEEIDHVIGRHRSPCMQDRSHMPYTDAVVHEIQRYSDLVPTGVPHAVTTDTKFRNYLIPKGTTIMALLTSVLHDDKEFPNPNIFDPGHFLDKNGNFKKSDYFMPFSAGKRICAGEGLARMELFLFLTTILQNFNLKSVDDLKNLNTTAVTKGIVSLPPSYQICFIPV
Chain of CYP2C19 (P33261 whole entry): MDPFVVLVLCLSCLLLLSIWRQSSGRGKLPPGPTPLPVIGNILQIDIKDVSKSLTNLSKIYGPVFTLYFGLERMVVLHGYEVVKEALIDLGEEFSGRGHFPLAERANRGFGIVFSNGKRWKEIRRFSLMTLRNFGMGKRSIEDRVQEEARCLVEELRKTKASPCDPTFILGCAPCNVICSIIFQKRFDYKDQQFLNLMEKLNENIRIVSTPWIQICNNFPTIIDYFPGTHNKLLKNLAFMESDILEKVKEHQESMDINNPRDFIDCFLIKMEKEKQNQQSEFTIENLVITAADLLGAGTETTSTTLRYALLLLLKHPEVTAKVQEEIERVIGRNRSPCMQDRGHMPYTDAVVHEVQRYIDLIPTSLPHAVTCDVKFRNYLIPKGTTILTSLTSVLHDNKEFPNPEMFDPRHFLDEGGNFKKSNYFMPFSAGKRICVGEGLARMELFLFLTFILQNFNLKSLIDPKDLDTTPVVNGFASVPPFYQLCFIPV
Chain of CYP2C9 (P11712 whole entry): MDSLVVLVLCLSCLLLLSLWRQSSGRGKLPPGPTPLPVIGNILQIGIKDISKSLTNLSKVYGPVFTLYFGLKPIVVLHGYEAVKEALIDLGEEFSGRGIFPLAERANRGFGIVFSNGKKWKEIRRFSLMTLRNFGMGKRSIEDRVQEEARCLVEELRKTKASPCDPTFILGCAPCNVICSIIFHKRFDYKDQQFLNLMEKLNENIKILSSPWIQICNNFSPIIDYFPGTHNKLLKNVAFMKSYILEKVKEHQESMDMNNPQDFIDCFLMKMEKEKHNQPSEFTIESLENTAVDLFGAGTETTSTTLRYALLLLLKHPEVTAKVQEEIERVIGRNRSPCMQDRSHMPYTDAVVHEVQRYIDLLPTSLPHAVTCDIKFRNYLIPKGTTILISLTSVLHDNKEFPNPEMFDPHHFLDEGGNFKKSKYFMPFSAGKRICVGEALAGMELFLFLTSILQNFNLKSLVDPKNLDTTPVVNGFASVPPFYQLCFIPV
Chain of hERG channel (Q12809 whole entry): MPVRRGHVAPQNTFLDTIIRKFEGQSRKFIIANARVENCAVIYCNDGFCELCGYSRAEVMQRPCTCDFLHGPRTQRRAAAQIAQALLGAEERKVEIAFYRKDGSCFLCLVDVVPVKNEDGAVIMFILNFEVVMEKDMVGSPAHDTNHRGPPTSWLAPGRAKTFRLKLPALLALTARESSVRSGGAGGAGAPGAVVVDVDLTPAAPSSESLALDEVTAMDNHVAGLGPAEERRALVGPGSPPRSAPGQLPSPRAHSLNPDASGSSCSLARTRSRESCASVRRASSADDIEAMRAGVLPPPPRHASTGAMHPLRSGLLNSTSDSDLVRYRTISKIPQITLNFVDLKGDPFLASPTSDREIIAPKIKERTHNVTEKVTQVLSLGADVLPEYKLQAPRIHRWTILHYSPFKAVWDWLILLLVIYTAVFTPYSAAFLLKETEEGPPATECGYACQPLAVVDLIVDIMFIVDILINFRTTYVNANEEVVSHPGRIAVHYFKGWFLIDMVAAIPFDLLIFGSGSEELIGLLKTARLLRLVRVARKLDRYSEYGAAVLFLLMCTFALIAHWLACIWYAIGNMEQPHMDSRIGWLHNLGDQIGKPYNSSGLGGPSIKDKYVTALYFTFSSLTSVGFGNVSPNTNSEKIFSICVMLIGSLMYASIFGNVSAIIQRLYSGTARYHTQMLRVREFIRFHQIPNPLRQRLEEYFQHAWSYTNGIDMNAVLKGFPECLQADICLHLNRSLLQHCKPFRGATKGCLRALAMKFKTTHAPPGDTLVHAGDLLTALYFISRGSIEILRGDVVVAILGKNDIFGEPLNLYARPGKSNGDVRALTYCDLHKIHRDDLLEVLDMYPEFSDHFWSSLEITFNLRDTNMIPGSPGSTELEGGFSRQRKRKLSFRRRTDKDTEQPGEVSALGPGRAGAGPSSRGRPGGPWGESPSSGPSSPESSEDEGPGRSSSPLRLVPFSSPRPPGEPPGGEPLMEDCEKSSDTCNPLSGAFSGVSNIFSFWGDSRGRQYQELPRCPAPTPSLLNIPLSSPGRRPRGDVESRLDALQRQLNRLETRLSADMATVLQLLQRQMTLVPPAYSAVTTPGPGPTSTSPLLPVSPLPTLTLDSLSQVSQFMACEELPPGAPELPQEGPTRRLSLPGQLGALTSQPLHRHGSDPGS

Turning to `N[C@H]1CC(C(=O)O)S(=O)(=O)C1` (mixture of isomers) [Compound 19, (4S)-4-Aminotetrahydrothiophene-2-carboxylic acid 1,1-dioxide hydrochloride], the Ki in data set [1] (read-out: Ki (reversible inhibition)) was found to be 3200 ± 700 µM.
On to `N[C@H]1C=C(C(=O)O)SC1` [(S)-4-Amino-4,5-dihydro-2-thiophenecarboxylic acid], for which, in data set [2], the “Potency/inactivation of GABA-AT (in words)” value was “known inactivator”. Besides, the “Inactivation or inhibition of aspartate aminotransferase” value in [3] was “inactivator”.
With `Cl.N[C@@H]1CS[C@H](C(=O)O)C1` [Compound 17, (2S,4S)-4-Aminotetrahydrothiophene-2-carboxylic acid hydrochloride], in [4], the CYP2D6 inhibition entry is reported as “did not inhibit or induce”. The “Inhibition of the hERG channel” value in data set [5] is “did not inhibit”. For the same compound, the “Inactivation of GABA-AT (in words)” value in data set [6] was “potent inactivators”. Further, the CYP1A inhibition entry in data set [7] is given as “did not inhibit or induce”. Also, the CYP2C9 inhibition result in data set [8] is “did not inhibit or induce”. Besides, the CYP2C19 inhibition entry in [9] is listed as “did not inhibit or induce”. For the same compound, the CYP2C8 inhibition entry in data set [10] is on record as “did not inhibit or induce”. Also, the fraction unbound in data set [11] was 0.74. For the same compound, the CYP2B6 inhibition entry in data set [12] was “did not inhibit or induce”. Also, in [13], the “metabolized in HLM” value is “less than 20%”. Moreover, in data set [14], the CYP3A inhibition result is on record as “did not inhibit or induce”.
Consider `Cl.N[C@@H]1CS[C@@H](C(=O)O)C1` [Compound 18, (2R,4S)-4-Aminotetrahydrothiophene-2-carboxylic acid hydrochloride], for which, in [6], the “Inactivation of GABA-AT (in words)” value was “potent inactivators”.
Turning to `N[C@@H]1CC(C(=O)O)S(=O)(=O)C1` (stereo partly drawn) [Compound 22], the Ki in data set [1] (pH 8.5, 25° C., from IC50 by Cheng-Prusoff, read-out: Ki (reversible inhibition)) turned out to be 7500 ± 700 µM.
`N[C@@H]1CC[C@H](C(=O)O)C1` [Compound 39, (1S,3R)-3-aminocyclopentane-1-carboxylic acid]: the “Inactivation of GABA-AT (in words)” value in data set [6] is reported as “not an inactivator”. The Ki in [1] (setting [16]) came out at 870 µM.
Turning to `N[C@@H]1CN[C@H](C(=O)O)C1` [Compound 41, (2S,4S)-4-aminopyrrolidine-2-carboxylic acid], the Ki in [1] (setting [16]) turned out to be 1300 µM.
Turning to `C=CC(N)CCC(=O)O` (stereo not drawn) [vigabatrin], the “Duration of effective spasms suppression” value in [15] is 1 days.
Take “mixture of (2S,4S)-4-aminotetrahydrofuran-2-carboxylic acid (40) and (2R,4R)-4-aminotetrahydrofuran-2-carboxylic acid (51) [mixture of enantiomers 40 and 51]”: the Ki in [1] (setting [16]) is 430 µM.
